As usually defined, the IC50 is the concentration needed to halve the response being measured. High values mean a need for much substance, low ones inhibition by little substance.

The target in the assay is T1, human IL-17A (Homo sapiens, UniProt Q16552).
T1 construct: purchased R&D Systems 7955-IL/CF
T1 sequence (Q16552 24-155): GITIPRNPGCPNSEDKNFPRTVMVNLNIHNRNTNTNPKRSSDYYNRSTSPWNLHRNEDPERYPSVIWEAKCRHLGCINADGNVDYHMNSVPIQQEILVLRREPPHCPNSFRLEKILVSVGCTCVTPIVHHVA
Description: IL-17A AlphaLISA competition assay (block of IL-17A binding to its receptor IL-17RA). The note with it: mean IC50 (n≥2), block of IL-17A binding to IL-17RA. A digest of the protocol:
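Human recombinant IL-17A (7.5 nM stock) pre-incubated 30 min at RT with compound, then IL-17RA/Fc (5 nM stock) added for 90 min; AlphaLISA read with anti-Fc acceptor beads, biotinylated anti-IL-17A antibody (5 nM) and streptavidin donor beads (3 h, dark). IC50 from 4-parameter logistic fit, normalised to DMSO and 4 μM reference inhibitor; n≥2.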
(In general: In Alpha technology, singlet oxygen from a donor bead excites a nearby acceptor bead.)
`COC[C@H](c1ccnc(NC(=O)[C@@H](NC(=O)c2nonc2C(C)C)C2CCC(F)(F)CC2)c1)N1C[C@@H](C(F)(F)F)NC1=O` [Example 195, N-((S)-1-(4,4-difluorocyclohexyl)-2-((4-((S)-2-methoxy-1-((S)-2-oxo-4-(trifluoromethyl)imidazolidin-1-yl)ethyl)pyridin-2-yl)amino)-2-oxoethyl)-4-isopropyl-1,2,5-oxadiazole-3-carboxamide] yielded an IC50 of 18 nM.

Regarding `COC[C@H](c1ccnc(NC(=O)[C@@H](NC(=O)c2nocc2C)C2CCC(F)(F)CC2)c1)N1C[C@@H](C(F)(F)F)NC1=O` [Example 196, N-((S)-1-(4,4-difluorocyclohexyl)-2-((4-((S)-2-methoxy-1-((S)-2-oxo-4-(trifluoromethyl)imidazolidin-1-yl)ethyl)pyridin-2-yl)amino)-2-oxoethyl)-4-methylisoxazole-3-carboxamide], the IC50 amounted to 39 nM.

On to `COC[C@H](c1ccnc(NC(=O)[C@@H](NC(=O)c2conc2C(C)C)C2CCC(F)(F)CC2)c1)N1C[C@@H](C(F)(F)F)NC1=O` [Example 197, N-((S)-1-(4,4-difluorocyclohexyl)-2-((4-((S)-2-methoxy-1-((S)-2-oxo-4-(trifluoromethyl)imidazolidin-1-yl)ethyl)pyridin-2-yl)amino)-2-oxoethyl)-3-isopropylisoxazole-4-carboxamide], for which the IC50 was 56 nM.

`CCc1nocc1C(=O)N[C@H](C(=O)Nc1cc([C@@H](COC)N2C[C@@H](C(F)(F)F)NC2=O)ccn1)C1CCC(F)(F)CC1` [Example 198, N-((S)-1-(4,4-difluorocyclohexyl)-2-((4-((S)-2-methoxy-1-((S)-2-oxo-4-(trifluoromethyl)imidazolidin-1-yl)ethyl)pyridin-2-yl)amino)-2-oxoethyl)-3-ethylisoxazole-4-carboxamide] displayed an IC50 of 47 nM.

In the case of `COC[C@H](c1ccnc(NC(=O)[C@@H](NC(=O)c2nonc2C)C2CCC(F)(F)CC2)c1)N1C[C@@H](C(F)(F)F)NC1=O` [Example 199, N-((S)-1-(4,4-difluorocyclohexyl)-2-((4-((S)-2-methoxy-1-((S)-2-oxo-4-(trifluoromethyl)imidazolidin-1-yl)ethyl)pyridin-2-yl)amino)-2-oxoethyl)-4-methyl-1,2,5-oxadiazole-3-carboxamide], the IC50 turned out to be 33 nM.

`COC[C@H](c1ccnc(NC(=O)[C@@H](NC(=O)c2nonc2C2CC2)C2CCC(F)(F)CC2)c1)N1C[C@@H](C(F)(F)F)NC1=O` [Example 200, 4-cyclopropyl-N-((S)-1-(4,4-difluorocyclohexyl)-2-((4-((S)-2-methoxy-1-((S)-2-oxo-4-(trifluoromethyl)imidazolidin-1-yl)ethyl)pyridin-2-yl)amino)-2-oxoethyl)-1,2,5-oxadiazole-3-carboxamide] yielded an IC50 of 18 nM.

`CCn1nccc1C(=O)N[C@H](C(=O)Nc1cc([C@@H](COC)N2C[C@@H](C(F)(F)F)NC2=O)ccn1)C1CCC(F)(F)CC1` [Example 201, N-((S)-1-(4,4-difluorocyclohexyl)-2-((4-((S)-2-methoxy-1-((S)-2-oxo-4-(trifluoromethyl)imidazolidin-1-yl)ethyl)pyridin-2-yl)amino)-2-oxoethyl)-1-ethyl-1H-pyrazole-5-carboxamide] yielded an IC50 of 70 nM.

`COC[C@H](c1ccnc(NC(=O)[C@@H](NC(=O)c2ccnn2C)C2CCC(F)(F)CC2)c1)N1C[C@@H](C(F)(F)F)NC1=O` [Example 202, N-((S)-1-(4,4-difluorocyclohexyl)-2-((4-((S)-2-methoxy-1-((S)-2-oxo-4-(trifluoromethyl)imidazolidin-1-yl)ethyl)pyridin-2-yl)amino)-2-oxoethyl)-1-methyl-1H-pyrazole-5-carboxamide] gave an IC50 of 70 nM.

As for `COC[C@H](c1ccnc(NC(=O)[C@@H](NC(=O)c2ccnn2C(C)C)C2CCC(F)(F)CC2)c1)N1C[C@@H](C(F)(F)F)NC1=O` [Example 203, N-((S)-1-(4,4-difluorocyclohexyl)-2-((4-((S)-2-methoxy-1-((S)-2-oxo-4-(trifluoromethyl)imidazolidin-1-yl)ethyl)pyridin-2-yl)amino)-2-oxoethyl)-1-isopropyl-1H-pyrazole-5-carboxamide], the IC50 came out at 90 nM.

In turn, `COC[C@H](c1ccnc(NC(=O)[C@@H](NC(=O)Cc2ccc(OC)nc2)C2CCC(F)(F)CC2)c1)N1C[C@@H](C(F)(F)F)NC1=O` [Example 204, (S)-2-(4,4-difluorocyclohexyl)-N-(4-((S)-2-methoxy-1-((S)-2-oxo-4-(trifluoromethyl)imidazolidin-1-yl)ethyl)pyridin-2-yl)-2-(2-(6-methoxypyridin-3-yl)acetamido)acetamide] gave a half-inhibitory concentration (IC50) of 129 nM.

`COC[C@H](c1ccnc(NC(=O)[C@@H](NC(=O)C(C)c2cccc(C#N)c2)C2CCC(F)(F)CC2)c1)N1C[C@@H](C(F)(F)F)NC1=O` (stereo partly drawn) [Example 205, 2-(3-cyanophenyl)-N-((S)-1-(4,4-difluorocyclohexyl)-2-((4-((S)-2-methoxy-1-((S)-2-oxo-4-(trifluoromethyl)imidazolidin-1-yl)ethyl)pyridin-2-yl)amino)-2-oxoethyl) propanamide] displayed an IC50 of 347 nM.

In turn, `COC[C@H](c1ccnc(NC(=O)[C@@H](NC(=O)Cc2cccc(C#N)c2)C2CCC(F)(F)CC2)c1)N1C[C@@H](C(F)(F)F)NC1=O` [Example 206, (S)-2-(2-(3-cyanophenyl)acetamido)-2-(4,4-difluorocyclohexyl)-N-(4-((S)-2-methoxy-1-((S)-2-oxo-4-(trifluoromethyl)imidazolidin-1-yl)ethyl)pyridin-2-yl)acetamide] displayed an IC50 of 157 nM.

`CCc1nonc1C(=O)N[C@H](C(=O)Nc1cc([C@@H](CC)N2C[C@@H](C(F)(F)F)NC2=O)ccn1)C1CCC(F)(F)CC1` [Example 209, N-((S)-1-(4,4-difluorocyclohexyl)-2-oxo-2-((4-((R)-1-((S)-2-oxo-4-(trifluoromethyl)imidazolidin-1-yl)propyl)pyridin-2-yl)amino)ethyl)-4-ethyl-1,2,5-oxadiazole-3-carboxamide] returned an IC50 of 23 nM.

For `CCc1nocc1C(=O)N[C@H](C(=O)Nc1cc([C@@H](CC)N2C[C@@H](C(F)(F)F)NC2=O)ccn1)C1CCC(F)(F)CC1` [Example 210, N-((S)-1-(4,4-difluorocyclohexyl)-2-oxo-2-((4-((R)-1-((S)-2-oxo-4-(trifluoromethyl)imidazolidin-1-yl)propyl)pyridin-2-yl)amino)ethyl)-3-ethylisoxazole-4-carboxamide], the IC50 turned out to be 38 nM.

On to `CC[C@H](c1ccnc(NC(=O)[C@@H](NC(=O)c2nonc2C)C2CCC(F)(F)CC2)c1)N1C[C@@H](C(F)(F)F)NC1=O` [Example 211, N-((S)-1-(4,4-difluorocyclohexyl)-2-oxo-2-((4-((R)-1-((S)-2-oxo-4-(trifluoromethyl)imidazolidin-1-yl)propyl)pyridin-2-yl)amino)ethyl)-4-methyl-1,2,5-oxadiazole-3-carboxamide], for which the IC50 came out at 33 nM.

Compound `CC[C@H](c1ccnc(NC(=O)[C@@H](NC(=O)c2nonc2C2CC2)C2CCC(F)(F)CC2)c1)N1C[C@@H](C(F)(F)F)NC1=O` [Example 212, 4-cyclopropyl-N-((S)-1-(4,4-difluorocyclohexyl)-2-oxo-2-((4-((R)-1-((S)-2-oxo-4-(trifluoromethyl)imidazolidin-1-yl)propyl)pyridin-2-yl)amino)ethyl)-1,2,5-oxadiazole-3-carboxamide] returned an IC50 of 23 nM.

`CC[C@H](c1ccnc(NC(=O)[C@@H](NC(=O)c2ccnn2CC)C2CCC(F)(F)CC2)c1)N1C[C@@H](C(F)(F)F)NC1=O` [Example 213, N-((S)-1-(4,4-difluorocyclohexyl)-2-oxo-2-((4-((R)-1-((S)-2-oxo-4-(trifluoromethyl)imidazolidin-1-yl)propyl)pyridin-2-yl)amino)ethyl)-1-ethyl-1H-pyrazole-5-carboxamide] yielded an IC50 of 28 nM.

The compound `CC[C@H](c1ccnc(NC(=O)[C@@H](NC(=O)c2ccnn2C)C2CCC(F)(F)CC2)c1)N1C[C@@H](C(F)(F)F)NC1=O` [Example 214, N-((S)-1-(4,4-difluorocyclohexyl)-2-oxo-2-((4-((R)-1-((S)-2-oxo-4-(trifluoromethyl)imidazolidin-1-yl)propyl)pyridin-2-yl)amino)ethyl)-1-methyl-1H-pyrazole-5-carboxamide] returned an IC50 of 46 nM.

In turn, `CC[C@H](c1ccnc(NC(=O)[C@@H](NC(=O)c2ccnn2C(C)C)C2CCC(F)(F)CC2)c1)N1C[C@@H](C(F)(F)F)NC1=O` [Example 215, N-((S)-1-(4,4-difluorocyclohexyl)-2-oxo-2-((4-((R)-1-((S)-2-oxo-4-(trifluoromethyl)imidazolidin-1-yl)propyl)pyridin-2-yl)amino)ethyl)-1-isopropyl-1H-pyrazole-5-carboxamide] yielded an IC50 of 65 nM.

`CCc1oncc1C(=O)N[C@H](C(=O)Nc1cc(C[C@H]2C[C@@H](C(F)(F)F)NC2=O)ccn1)C1CCC(F)(F)CC1` [Example 218, N-((S)-1-(4,4-difluorocyclohexyl)-2-oxo-2-((4-(((3S,5S)-2-oxo-5-(trifluoromethyl)pyrrolidin-3-yl)methyl)pyridin-2-yl)amino)ethyl)-5-ethylisoxazole-4-carboxamide] yielded an IC50 of 158 nM.

As for `CC(C)c1oncc1C(=O)N[C@H](C(=O)Nc1cc(C[C@H]2C[C@@H](C(F)(F)F)NC2=O)ccn1)C1CCC(F)(F)CC1` [Example 219, N-((S)-1-(4,4-difluorocyclohexyl)-2-oxo-2-((4-(((3S,5S)-2-oxo-5-(trifluoromethyl)pyrrolidin-3-yl)methyl)pyridin-2-yl)amino)ethyl)-5-isopropylisoxazole-4-carboxamide], the IC50 is 80 nM.
